Measurements: patent US20240366648A1, “NAD-AUGMENTATION THERAPY FOR PARKINSON'S DISEASE” (Vestlandets Innovasjonsselskap AS (VIS), priority 2021, published 2024)

Legend:
Format in all cases: in vivo, human
NAD metabolome in PBMCs = experiment: Metabolomic analysis (LC-MS) in PBMCs; conditions: oral NR 1000 mg/day, 30 days
Experimental: Biological material was collected at both visits, following a minimum 6-hour fasting and within 6 hours after study drug intake for visit 2. Sampling included whole blood, serum, peripheral blood mononuclear cells (PBMCs), cerebrospinal fluid (CSF) and muscle biopsy. Lumbar puncture was performed according to standard clinical procedures to collect 10 ml CSF. Needle biopsy of the vastus lateralis muscle was performed using a Bard Magnum biopsy gun (BD©, United States) and 12G×10 cm biopsy needles. Muscle biopsies were immediately dissected to remove any non-muscle tissue (e.g., fat or fascia) and snap-frozen in liquid nitrogen.
Standard substances of all the targeted compounds were used to prepare stock standard solutions and these solutions were mixed and diluted to make serially diluted standard solutions in an internal standard solution containing 11 isotope-labeled compounds (NAD-13C5, NADH-d5, nicotinamide riboside-d4, nicotinic-d4 acid, nicotinic acid-d4 riboside, AMP-15N5, ATP-13C10, nicotinamide-d4, 1-methylnicotinamide-d3, adenosine-13C5 and GTP-13C10) in a concentration range of 0.0002 to 20 nmol/mL. […] For metabolomic analyses in PBMCs, several aliquots of one sample were thawed on ice, centrifuged (10 min, 350×g, 4° C.), resuspended in ice-cold PBS and counted on a countess II cell counter. […]
For UPLC-MRM/MS, 10 μL aliquots of each standard solution and each sample solutions were injected to run LCMRM/MS either on a Waters Acquity UPLC coupled to a Sciex QTRAP 6500 Plus mass spectrometer with (−) ion detection or ESI or on an Agilent 1290 UHPLC system coupled to an Agilent 6495B QQQ mass spectrometer with (+) ion detection. […] Concentrations of individual metabolites detected in each sample were calculated by constructing linear-regression curves of individual metabolites with the analyte-to-internal standard peak area ratios (As/Ai) of standard solutions in each set of LC-MS runs and then by interpolating the calibration curves with the as/Ai values measured from injections of sample solutions in an appropriate concentration range for each compound. […]

individuals with PD = experiment: Phase II trial, brain MRI at baseline and week 52 (Example 3); conditions: 80 individuals who completed 52 weeks (1000 mg NR or placebo, blinded)
Experimental: To further test NR as a neuroprotective therapy for PD, and in particular to assess NR in delaying nigrostriatal degeneration or denervation, and clinical disease progression in patients with early PD, a multi-centre phase II randomized double-blinded clinical trial is performed, comparing NR to placebo in individuals with early stage PD.
Each capsule of NR contains 250 mg of NR. Patients are administered orally 2 capsules (each 250 mg) two times a day (1000 mg daily total) for the duration of the study (52 weeks). Placebo capsules are administered similarly (2 capsules two times a day). The study medication is to be taken every day during the treatment period, including prior to study visits and imaging.
The present study is a randomized, double-blind phase 11 trial, where a total of 400 individuals with PD receive 1000 mg NR or placebo for a period of 52 weeks. Extensive medical testing and screening, including brain MRI, is performed both at baseline and end-of-study (i.e., after 52 weeks of exposure). […] The therapy can therefore be considered not to be associated with an increase in glioma or brain neoplasm prevalence over the duration of treatment.

[1] = test system: individuals with Parkinson's disease; experiment: High-dose NR safety study in PD (Example 5); conditions: oral NR 3000 mg daily, 4 weeks
Experimental: • To determine the safety of oral NR 3000 mg daily for a period of 4 weeks in individuals with Parkinson's disease (PD). Safety is defined as the absence of NR-associated moderate or severe adverse events (AE).
This is a single center, phase I double blinded, randomized, placebo controlled drug-safety study.
20 patients are included in this study: 10 receiving 3000 mg oral NR and 10 receiving placebo.
Each capsule of NR contains 250 mg of NR. Patients administer orally 6 capsules (1500 mg) two times daily (3000 mg daily total) for the duration of the study (4 weeks). Placebo capsules are administered similarly (6 capsules two times daily). The study medication is to be taken every day during the treatment period, including prior to study visits.
An adverse event (AE) can therefore be any unfavourable and unintended sign (including an abnormal laboratory finding), symptom, or disease temporally associated with the use of a investigational product, whether or not related to the investigational product. The term AE is used to include both serious and non-serious AEs. If an abnormal laboratory value/vital sign is associated with clinical signs and symptoms, the sign/symptom is reported as an AE and the associated laboratory result/vital sign is considered as additional information that must be collected. Only intensity 2 and 3 is registered as AE. […]

NC(=O)c1ccc[n+]([C@@H]2O[C@H](CO)[C@@H](O)[C@H]2O)c1 [NR, nicotinamide riboside]
Me-Nam level in PBMCs (NAD metabolome in PBMCs): increase
NAAD level in PBMCs (NAD metabolome in PBMCs): increase
acetyl-CoA, CoA, SAM and its metabolites, energy compounds such as ATP in PBMCs (NAD metabolome in PBMCs): no significant change
cases of glioma or other brain neoplasms on brain MRI (individuals with PD): no cases of glioma or any other brain neoplasms
adverse events reported throughout the study [1]: no serious adverse events or any adverse events of medical significance
